The values that follow are results of earlier work, collected in US20170035783A1, “COMPOSITION FOR THE PREVENTION AND THERAPY OF TUMOR DISEASES” (SANOXSYS GMBH, priority 2014, published 2017).

The test system of this data set is breast cancer risk. Particulars: subcutaneous pellet, 2008-2010.

As to `C[C@]12CC[C@H]3[C@@H](CCC4=CC(=O)CC[C@@]43C)[C@@H]1CC[C@@H]2O` [testosterone alone, testosterone], the “breast cancer risk in pre- and postmenopausal women” value was “reduce the breast cancer risk”.
